Measured values reported in patent US9801901B2, “Alginate oligomers for use in overcoming multidrug resistance in bacteria” (priority 2009, dated 2017).
Converted amounts (≈) assume the structure as drawn. Read-outs that look alike come from different tables or passages of the source. Marks after values point to notes of the source that are not given here.

Assays:
[1] = system: Acinetobacter baumannii MDR ACB from Libya (V4); assay: MIC assay, CAMHB with alginate oligomer, no visible growth; format: cell-based; details: for effect in combination with alginate oligomers: Example 1, Acinetobacter baumannii isolate; for change of MIC in combination with azithromycin by alginate oligomer: Table 3, MDR Acinetobacter baumannii isolate
Description: The study described in Example 1 was repeated with the following strains of bacteria and antibiotics as detailed in Tables 4, 5 and 6.
(§1) The study described in Example 1 was repeated with the following strains of Acinetobacter baumannii, antibiotics and M-block alginate oligomer in place of OligoG CF-5/20 as detailed in Table 7. The M-block oligomer is 100% M with a DPn of 15 to 18,

V11 5702 (Wales) E. coli = assay: as above; format: cell-based; details: Table 5, V11 MDR E.coli
V22 6056 Acinetobacter = assay: as above; format: cell-based, Acinetobacter lwoffii; details: Table 5, V22 MDR Acin. lwoff
[2] = system: V23 1322 Burkholderia cepacia; assay: as above; format: cell-based
[3] = system: V19 non MDR Acinetobacter baumannii; assay: MIC assay, CAMHB with M-block alginate oligomer, no visible growth; format: cell-based; details: Table 7, V19 non MDR Acin. baum
Description: as §1

[4] = system: strains of Klebsiella pneumoniae displaying MDR phenotypes; assay: MIC-assay, Mueller-Hinton broth with G-block alginate, 384-well, OD600 (Table 10); format: cell-based
Description: Minimum inhibitory concentration (MICs) of different antibiotics for strains of Klebsiella pneumoniae displaying MDR phenotypes in the presence of varying concentrations of OligoCF-5/20 (0-10%). (MIC values are expressed in μg ml^−1).

MDR Pseudomonas strains = assay: MIC assay of Example 1, summary over the MDR Pseudomonas strains; format: cell-based, Pseudomonas aeruginosa
[5] = system: Burkholderia cepacia (1322, V23); assay: MIC-assay, Mueller-Hinton broth with G-block alginate, 384-well, OD600
[6] = system: Acinetobacter baumannii (Egypt, V9); assay: as above
[7] = system: Klebsiella pneumoniae KP05 506 from India (V3); assay: MIC assay, CAMHB with alginate oligomer, no visible growth; format: cell-based; details: Klebsiella pneumoniae, Table 1, V3 KP05 506, read-out: MIC
[8] = system: V10 (Egypt) Acinetobacter lwoffii; assay: as above; format: cell-based; details: Table 5, V10 MDR Acin. lwoff
[9] = Acinetobacter baumannii, Table 1, V4 ACB (Libya), OligoCF-5/20 0G, read-out: MIC
[10] = Acinetobacter baumannii, Table 1, V4 ACB (Libya), OligoCF-5/20 +10% G, read-out: MIC
[11] = Acinetobacter, OligoCF-5/20 0G, read-out: MIC
[12] = Burkholderia cepacia, Table 5, V23 MDR Burk cep, OligoCF-5/20 0G, read-out: MIC
[13] = Table 5, V23 MDR Burk cep, OligoCF-5/20 +2% G
[14] = Table 5, V23 MDR Burk cep, OligoCF-5/20 +6% G
[15] = Table 5, V23 MDR Burk cep, OligoCF-5/20 +10% G
[16] = Klebsiella pneumoniae (5712, Wales, V12) MDR, G-block (OligoCF-5/20) 0%, read-out: MIC
[17] = Klebsiella pneumoniae (5712, Wales, V12) MDR, G-block (OligoCF-5/20) 2%, read-out: MIC
[18] = Klebsiella pneumoniae (5712, Wales, V12) MDR, G-block (OligoCF-5/20) 6%, read-out: MIC
[19] = Klebsiella pneumoniae (5712, Wales, V12) MDR, G-block (OligoCF-5/20) 10%, read-out: MIC
[20] = Klebsiella pneumoniae (IR25, India, V6) MDR, G-block (OligoCF-5/20) 6%, read-out: MIC
[21] = Klebsiella pneumoniae (K3, India, V8) MDR, G-block (OligoCF-5/20) 0%, read-out: MIC
[22] = Klebsiella pneumoniae (K3, India, V8) MDR, G-block (OligoCF-5/20) 2%, read-out: MIC
[23] = Klebsiella pneumoniae (K3, India, V8) MDR, G-block (OligoCF-5/20) 6%, read-out: MIC
[24] = Klebsiella pneumoniae (K3, India, V8) MDR, G-block (OligoCF-5/20) 10%, read-out: MIC
[25] = Table 8, G-block (OligoCF-5/20) 0%
[26] = Table 8, G-block (OligoCF-5/20) 2%
[27] = Table 8, G-block (OligoCF-5/20) 6%
[28] = Table 8, G-block (OligoCF-5/20) 10%
[29] = Table 9, G-block (OligoCF-5/20) 0%
[30] = Table 9, G-block (OligoCF-5/20) 2%
[31] = Table 9, G-block (OligoCF-5/20) 6%
[32] = Table 9, G-block (OligoCF-5/20) 10%

## O=C(O)c1cn(C2CC2)c2cc(N3CCNCC3)c(F)cc2c1=O [Ciprofloxacin]
[1]; [9]
  MIC: 64 µg/mL (≈ 193 µM)
[1]; Acinetobacter baumannii, Table 1, V4 ACB (Libya), OligoCF-5/20 +2% G, read-out: MIC
  MIC: 32 µg/mL (≈ 96.6 µM)
[1]; Acinetobacter baumannii, Table 1, V4 ACB (Libya), OligoCF-5/20 +6% G, read-out: MIC
  MIC: 16 µg/mL (≈ 48.3 µM)
[1]; [10]
  MIC: 16 µg/mL (≈ 48.3 µM)
[1]; Acinetobacter baumannii, Table 7, V4 MDR Acin baum (Libya), M-block oligomer 0M, read-out: MIC
  MIC: 64 µg/mL (≈ 193 µM)
[1]; Acinetobacter baumannii, Table 7, V4 MDR Acin baum (Libya), M-block oligomer +2% M, read-out: MIC
  MIC: 64 µg/mL (≈ 193 µM)
[1]; Acinetobacter baumannii, Table 7, V4 MDR Acin baum (Libya), M-block oligomer +6% M, read-out: MIC
  MIC: 64 µg/mL (≈ 193 µM)
[1]
  effect in combination with alginate oligomers: more positive effect
  change of MIC in combination with azithromycin by alginate oligomer: reduced
V11 5702 (Wales) E. coli; OligoCF-5/20 +2% G
  MIC: 64^† μg/ml
V22 6056 Acinetobacter; [11]
  MIC: < 0.25 µg/mL
[2]; [12]
  MIC: 64 µg/mL (≈ 193 µM)
[2]; [13]
  MIC: 64 µg/mL (≈ 193 µM)
[2]; [14]
  MIC: 64 µg/mL (≈ 193 µM)
[2]; [15]
  MIC: 32^† μg/ml
[3]; M-block oligomer 0M
  MIC: 64 µg/mL (≈ 193 µM)
[3]; M-block oligomer +2% M
  MIC: 32 µg/mL (≈ 96.6 µM)
[3]; M-block oligomer +6% M
  MIC: 16 µg/mL (≈ 48.3 µM)
[4]; [16]
  MIC: > 8 µg/mL
[4]; [17]
  MIC: > 8 µg/mL
[4]; [18]
  MIC: > 8 µg/mL
[4]; [19]
  MIC: > 8 µg/mL
[4]; Klebsiella pneumoniae (IR25, India, V6) MDR, G-block (OligoCF-5/20) 2%, read-out: MIC
  MIC: 64 µg/mL (≈ 193 µM)
[4]; [20]
  MIC: 64 µg/mL (≈ 193 µM)
[4]; Klebsiella pneumoniae (IR25, India, V6) MDR, G-block (OligoCF-5/20) 10%, read-out: MIC
  MIC: 64 µg/mL (≈ 193 µM)
[4]; [21]
  MIC: 32 µg/mL (≈ 96.6 µM)
[4]; [22]
  MIC: 32 µg/mL (≈ 96.6 µM)
[4]; [23]
  MIC: > 1020 µg/mL
[4]; [24]
  MIC: > 1020 µg/mL
MDR Pseudomonas strains
  effectiveness when used in combination with the alginate oligomers: more effective
[5]; [25]
  MIC: > 8 µg/mL
[5]; [26]
  MIC: > 8 µg/mL
[5]; [27]
  MIC: > 8 µg/mL
[5]; [28]
  MIC: > 8 µg/mL
[6]; [29]
  MIC: > 8 µg/mL
[6]; [30]
  MIC: > 8 µg/mL
[6]; [31]
  MIC: 8 µg/mL (≈ 24.1 µM)
[6]; [32]
  MIC: 8 µg/mL (≈ 24.1 µM)

## CC(C)(O/N=C(\C(=O)N[C@@H]1C(=O)N2C(C(=O)[O-])=C(C[n+]3ccccc3)CS[C@H]12)c1csc(N)n1)C(=O)O [Ceftazidime]
[7]; OligoCF-5/20 0G
  MIC: > 1020 µg/mL
[7]; OligoCF-5/20 +2% G
  MIC: > 1020 µg/mL
[7]; OligoCF-5/20 +6% G
  MIC: > 1020 µg/mL
[7]; OligoCF-5/20 +10% G
  MIC: > 1020 µg/mL
[1]; [9]
  MIC: 512 µg/mL (≈ 937 µM)
[1]; [10]
  MIC: 256 µg/mL (≈ 468 µM)
[1]
  effect in combination with alginate oligomers: more positive effect
  change of MIC in combination with azithromycin by alginate oligomer: reduced
[1]; Table 1, V4 ACB (Libya), OligoCF-5/20 +6% G
  MIC: 512 µg/mL (≈ 937 µM)
[8]; Acinetobacter lwoffii, OligoCF-5/20 0G, read-out: MIC
  MIC: 2 µg/mL (≈ 3.66 µM)
[8]; OligoCF-5/20 +2% G
  MIC: 2 µg/mL (≈ 3.66 µM)
[8]; OligoCF-5/20 +6% G
  MIC: <0.5^† μg/ml
[8]; OligoCF-5/20 +10% G
  MIC: <0.5^† μg/ml
V11 5702 (Wales) E. coli; Escherichia coli, OligoCF-5/20 0G, read-out: MIC
  MIC: 128 µg/mL (≈ 234 µM)
V11 5702 (Wales) E. coli; OligoCF-5/20 +2% G
  MIC: 64^† μg/ml
V11 5702 (Wales) E. coli; OligoCF-5/20 +6% G
  MIC: 32^† μg/ml
V11 5702 (Wales) E. coli; OligoCF-5/20 +10% G
  MIC: 64^† μg/ml
V22 6056 Acinetobacter; [11]
  MIC: 16 µg/mL (≈ 29.3 µM)
V22 6056 Acinetobacter; OligoCF-5/20 +2% G
  MIC: 16 µg/mL (≈ 29.3 µM)
V22 6056 Acinetobacter; OligoCF-5/20 +6% G
  MIC: 4^† μg/ml
V22 6056 Acinetobacter; OligoCF-5/20 +10% G
  MIC: 2^† μg/ml
[2]; [12]
  MIC: 64 µg/mL (≈ 117 µM)
[2]; Burkholderia cepacia, Table 6, V23, Experiment 1 (18-03-10), OligoCF-5/20 0G, read-out: MIC
  MIC: 128 µg/mL (≈ 234 µM)
[2]; Burkholderia cepacia, Table 6, V23, Experiment 2 (18-03-10), OligoCF-5/20 0G, read-out: MIC
  MIC: 64 µg/mL (≈ 117 µM)
[2]; Burkholderia cepacia, Table 6, V23, Experiment 3 (19-03-10), OligoCF-5/20 0G, read-out: MIC
  MIC: 64 µg/mL (≈ 117 µM)
[2]; [13]
  MIC: 32^† μg/ml
[2]; [14]
  MIC: 8 µg/mL (≈ 14.6 µM)
[2]; [15]
  MIC: <0.5^† μg/ml
[2]; Table 6, V23, Experiment 1 (18-03-10), OligoCF-5/20 +2% G
  MIC: 64^† μg/ml
[2]; Table 6, V23, Experiment 1 (18-03-10), OligoCF-5/20 +6% G
  MIC: 16^† μg/ml
[2]; Table 6, V23, Experiment 1 (18-03-10), OligoCF-5/20 +10% G
  MIC: 8^† μg/ml
[2]; Table 6, V23, Experiment 2 (18-03-10), OligoCF-5/20 +2% G
  MIC: 64 µg/mL (≈ 117 µM)
[2]; Table 6, V23, Experiment 2 (18-03-10), OligoCF-5/20 +6% G
  MIC: 32^† μg/ml
[2]; Table 6, V23, Experiment 2 (18-03-10), OligoCF-5/20 +10% G
  MIC: 32^† μg/ml
[2]; Table 6, V23, Experiment 3 (19-03-10), OligoCF-5/20 +2% G
  MIC: 32^† μg/ml
[2]; Table 6, V23, Experiment 3 (19-03-10), OligoCF-5/20 +6% G
  MIC: 16^† μg/ml
[2]; Table 6, V23, Experiment 3 (19-03-10), OligoCF-5/20 +10% G
  MIC: 4^† μg/ml
[4]; [16]
  MIC: > 16 µg/mL
[4]; [17]
  MIC: 8 µg/mL (≈ 14.6 µM)
[4]; [18]
  MIC: > 16 µg/mL
[4]; [19]
  MIC: > 16 µg/mL
[4]; Klebsiella pneumoniae (IR25, India, V6) MDR, G-block (OligoCF-5/20) 0%, read-out: MIC
  MIC: > 1020 µg/mL
[4]; Klebsiella pneumoniae (IR25, India, V6) MDR, G-block (OligoCF-5/20) 2%
  MIC: 1020 µg/mL (≈ 1870 µM)
[4]; [20]
  MIC: > 1020 µg/mL
[4]; Klebsiella pneumoniae (IR25, India, V6) MDR, G-block (OligoCF-5/20) 10%
  MIC: 1020 µg/mL (≈ 1870 µM)
[4]; [21]
  MIC: > 1020 µg/mL
[4]; [22]
  MIC: > 1020 µg/mL
[4]; [23]
  MIC: > 1020 µg/mL
[4]; [24]
  MIC: > 1020 µg/mL
MDR Pseudomonas strains
  effectiveness when used in combination with the alginate oligomers: more effective
[5]; [25]
  MIC: > 16 µg/mL
[5]; [26]
  MIC: > 16 µg/mL
[5]; [27]
  MIC: 16 µg/mL (≈ 29.3 µM)
[5]; [28]
  MIC: 16 µg/mL (≈ 29.3 µM)
[6]; [29]
  MIC: > 16 µg/mL
[6]; [30]
  MIC: > 16 µg/mL
[6]; [31]
  MIC: > 16 µg/mL
[6]; [32]
  MIC: > 16 µg/mL
